Results taken from patent publication US20250154169A1, “COMPOUNDS AND METHODS FOR MODULATING SPLICING” (REMIX THERAPEUTICS INC., priority 2021, published 2025).
Where two headings read alike, the source gives them in different places.

Columns and labels:
Assay type in all cases: cell-based, human
[1] = tested on: MYB mRNA; assay: Splicing RT-qPCR assay, MYB canonical (CJ) and alternative (AJ) junction mRNA
How it was run: (§1)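 Canonical (CJ) and alternative-exon (AJ) junction mRNAs quantified by one-step RT-qPCR in cell lysates, normalized to housekeeping PPIA for A673 and GAPDH or GUSB for K562. Cells were exposed 24 h at 37 °C to 11-point 3-fold compound series from 10 uM final, with DMSO at or below 0.25%.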

[2] = tested on: HTT mRNA; assay: Splicing RT-qPCR assay, HTT canonical (CJ) and alternative (AJ) junction mRNA
How it was run: as §1

[3] = tested on: SMN2 mRNA; assay: Splicing RT-qPCR gene panel, SMN2 canonical junction (CJ) mRNA; details: Tables 4A/4B, read-out: SMN2 (IC50, decrease in CJ mRNA, gene panel)
How it was run: (§2)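 Canonical-junction mRNA levels were quantified by RT-qPCR in lysates, using ΔΔCt against a housekeeping gene (GAPDH, GUSB or PPIA) and DMSO wells, expressed as percentage response. Cells (A673 or K562) had been exposed for 24 h at 37° C. to 11 three-fold compound concentrations up to 10 uM, DMSO ≤0.25%.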

[4] = tested on: HTT mRNA; assay: Splicing RT-qPCR gene panel, HTT canonical junction (CJ) mRNA; details: Tables 4A/4B, read-out: HTT (IC50, decrease in CJ mRNA, gene panel)
How it was run: as §2

[5] = tested on: Target C mRNA; assay: Splicing RT-qPCR gene panel, Target C canonical junction (CJ) mRNA; details: Tables 4A/4B, read-out: Target C (IC50, decrease in CJ mRNA, gene panel)
How it was run: as §2

[6] = Homo sapiens, 24 h, A673 or K562 cells, 24 hours compound treatment, RT-qPCR, read-out: MYB AJ (AC50, increase in alternative junction mRNA)
[7] = Homo sapiens, 24 h, A673 or K562 cells, 24 hours compound treatment, RT-qPCR, read-out: MYB CJ (IC50, decrease in canonical junction mRNA)
[8] = Homo sapiens, Tables 4A/4B, canonical junction qPCR panel, read-out: MYB (IC50, decrease in CJ mRNA, gene panel)
[9] = Homo sapiens, 24 h, A673 or K562 cells, 24 hours compound treatment, read-out: HTT CJ (IC50, decrease in canonical junction mRNA)
[10] = Homo sapiens, A673 or K562 cells, 24 hours compound treatment, read-out: HTT AJ (AC50, increase in alternative junction mRNA)
[11] = Homo sapiens, Table 3B, canonical junction mRNA, RT-qPCR, read-out: MYB CJ (IC50, decrease in CJ mRNA)
[12] = Homo sapiens, Table 3B, alternative junction mRNA, RT-qPCR, read-out: MYB AJ (AC50, increase in AJ mRNA)
[13] = Homo sapiens, Table 3B, alternative junction mRNA, read-out: HTT AJ (AC50, increase in AJ mRNA)
[14] = Homo sapiens, Table 3B, canonical junction mRNA, read-out: HTT CJ (IC50, decrease in CJ mRNA)

SMILES | IC50 [1, 7] [nM] | IC50 [1, 8] [nM] | IC50 [2, 9] [nM] | IC50 ([3]; Homo sapiens) [nM] | IC50 ([4]; Homo sapiens) [nM] | IC50 ([5]; Homo sapiens) [nM] | IC50 [1, 11] [nM] | IC50 [2, 14] [nM] | IC50 ([1]; Table 3B, canonical junction mRNA, RT-qPCR, read-out: MYB CJ (IC50, decrease in CJ mRNA)) [nM] | IC50 ([1]; Tables 4A/4B, canonical junction qPCR panel, read-out: MYB (IC50, decrease in CJ mRNA, gene panel)) [nM] | IC50 ([2]; Table 3B, canonical junction mRNA, read-out: HTT CJ (IC50, decrease in CJ mRNA)) [nM] | IC50 [3] [nM] | IC50 [4] [nM] | IC50 [5] [nM] | AC50 [1, 6] [nM] | AC50 [2, 10] [nM] | AC50 [1, 12] [nM] | AC50 [2, 13] [nM] | AC50 ([1]; Table 3B, alternative junction mRNA, RT-qPCR, read-out: MYB AJ (AC50, increase in AJ mRNA)) [nM] | AC50 ([2]; Table 3B, alternative junction mRNA, read-out: HTT AJ (AC50, increase in AJ mRNA)) [nM]
CCn1cc2c(N3CC[C@@H](N(C)C)C3)cc(F)c(C(=O)Nc3cc(F)c4nc(C)cn4c3)c2n1 [Compound 473, 4-[(3R)-3-(dimethylamino)pyrrolidin-1-yl]-2-ethyl-6-fluoro-N-{8-fluoro-2-methylimidazo[1,2-a]pyridin-6-yl}indazole-7-carboxamide; bis(trifluoroacetic acid)] | < 100 | < 100 | 1000 to 10000 | < 100 | 1000 to 10000 | > 10000 |  |  |  |  |  |  |  |  | < 100 | 1000 to 10000 |  |  |  | 
CCn1cc2c(N3CCNCC3)cc(F)c(C(=O)Nc3cc(F)c4nc(C)cn4c3)c2n1 [Compound 474, 2-ethyl-6-fluoro-N-{8-fluoro-2-methylimidazo[1,2-a]pyridin-6-yl}-4-(piperazin-1-yl) indazole-7-carboxamide] | < 100 | < 100 | < 100 | < 100 | 100 to 1000 | 1000 to 10000 |  |  |  |  |  |  |  |  | < 100 | 100 to 1000 |  |  |  | 
CCn1cc2c(N3C[C@@H](C)N[C@@H](C)C3)cc(F)c(C(=O)Nc3cc(F)c4nc(C)cn4c3)c2n1 [Compound 475, 4-[(3R,5S)-3,5-dimethylpiperazin-1-yl]-2-ethyl-6-fluoro-N-{8-fluoro-2-methylimidazo[1,2-a]pyridin-6-yl}indazole-7-carboxamide; trifluoroacetic acid] | < 100 | < 100 | 100 to 1000 | < 100 | 100 to 1000 | 1000 to 10000 |  |  |  |  |  |  |  |  | < 100 | 100 to 1000 |  |  |  | 
CCn1cc2c(NC3CCNCC3)ccc(C(=O)Nc3cc(F)c4nc(C)cn4c3)c2n1 [Compound 476, 2-ethyl-N-{8-fluoro-2-methylimidazo[1,2-a]pyridin-6-yl}-4-(piperidin-4-ylamino) indazole-7-carboxamide] | 1000 to 10000 | 1000 to 10000 | 100 to 1000 | 100 to 1000 | 100 to 1000 | 1000 to 10000 |  |  |  |  |  |  |  |  | 1000 to 10000 | 1000 to 10000 |  |  |  | 
CCn1cc2c(N3CC4(CNC4)C3)ccc(C(=O)Nc3cc(F)c4nc(C)cn4c3)c2n1 [Compound 477, 4-{2,6-diazaspiro[3.3]heptan-2-yl}-2-ethyl-N-{8-fluoro-2-methylimidazo[1,2-a]pyridin-6-yl}indazole-7-carboxamide] | 100 to 1000 | 100 to 1000 | 1000 to 10000 | 100 to 1000 | 1000 to 10000 | > 10000 |  |  |  |  |  |  |  |  | 100 to 1000 | > 10000 |  |  |  | 
CCNC1CCN(c2ccc(C(=O)Nc3cc(F)c4nc(C)cn4c3)c3nc(CC)cn23)C1 (centres unmarked) [Compound 942] |  | 100 to 1000 |  | < 100 | 100 to 1000 | 1000 to 10000 | 100 to 1000 | 100 to 1000 |  |  |  |  |  |  |  |  | 100 to 1000 | 1000 to 10000 |  | 
CCc1cn2c(N3CCNCC3)ccc(C(=O)Nc3cc(F)c4nc(C)cn4c3)c2n1 [Compound 943] |  | < 100 |  | < 100 | 100 to 1000 | 1000 to 10000 | < 100 | 100 to 1000 |  |  |  |  |  |  |  |  | < 100 | 1000 to 10000 |  | 
CCNC1CCN(c2ccc(C(=O)Nc3cc(F)c4nc(C)cn4c3)c3nc(CC)sc23)C1 (centres unmarked) [Compound 944] |  | 100 to 1000 |  | < 100 | 1000 to 10000 | 1000 to 10000 | 100 to 1000 | 1000 to 10000 |  |  |  |  |  |  |  |  | 100 to 1000 | 1000 to 10000 |  | 
CCc1nc2c(C(=O)Nc3cc(F)c4nc(C)cn4c3)ccc(N3CCNCC3)c2s1 [Compound 945] |  | < 100 |  | < 100 | 1000 to 10000 | 1000 to 10000 | < 100 | 1000 to 10000 |  |  |  |  |  |  |  |  | < 100 | 1000 to 10000 |  | 
COc1c(NC(=O)c2ccc(N3CCNCC3)c3nc(C)nn23)cn2cc(C)nc2c1F [Compound 949] |  | < 100 |  | < 100 | < 100 | < 100 | < 100 | < 100 |  |  |  |  |  |  |  |  | < 100 | < 100 |  | 

Continued, in another order:

IC50 [1, 7] [nM] | IC50 [1, 8] [nM] | IC50 [2, 9] [nM] | IC50 ([3]; Homo sapiens) [nM] | IC50 ([4]; Homo sapiens) [nM] | IC50 ([5]; Homo sapiens) [nM] | IC50 [1, 11] [nM] | IC50 [2, 14] [nM] | IC50 ([1]; Table 3B, canonical junction mRNA, RT-qPCR, read-out: MYB CJ (IC50, decrease in CJ mRNA)) [nM] | IC50 ([1]; Tables 4A/4B, canonical junction qPCR panel, read-out: MYB (IC50, decrease in CJ mRNA, gene panel)) [nM] | IC50 ([2]; Table 3B, canonical junction mRNA, read-out: HTT CJ (IC50, decrease in CJ mRNA)) [nM] | IC50 [3] [nM] | IC50 [4] [nM] | IC50 [5] [nM] | SMILES | AC50 [1, 6] [nM] | AC50 [2, 10] [nM] | AC50 [1, 12] [nM] | AC50 [2, 13] [nM] | AC50 ([1]; Table 3B, alternative junction mRNA, RT-qPCR, read-out: MYB AJ (AC50, increase in AJ mRNA)) [nM] | AC50 ([2]; Table 3B, alternative junction mRNA, read-out: HTT AJ (AC50, increase in AJ mRNA)) [nM]
 | < 100 |  | < 100 | 100 to 1000 | 1000 to 10000 | < 100 | 100 to 1000 |  |  |  |  |  |  | Cc1cn2cc(NC(=O)c3ccc(N4CCNCC4)n4cc(C)nc34)cc(F)c2n1 [Compound 908] |  |  | < 100 | 100 to 1000 |  | 
 |  |  |  |  |  |  |  | < 100 | < 100 | 100 to 1000 | < 100 | 100 to 1000 | 100 to 1000 | CCc1cc2c(N3CCNCC3)ccc(C(=O)Nc3cc(F)c4nc(C)cn4c3)n2n1 [Compound 916] |  |  |  |  | < 100 | 100 to 1000
 | 1000 to 10000 |  | 100 to 1000 | > 10000 | > 10000 | 1000 to 10000 | > 10000 |  |  |  |  |  |  | Cc1cn2cc(NC(=O)c3ncc(N4CCNCC4)c4cn(C)nc34)cc(F)c2n1 [Compound 932] |  |  | 1000 to 10000 | > 10000 |  | 
 | < 100 |  | < 100 | < 100 | 100 to 1000 | < 100 | < 100 |  |  |  |  |  |  | Cc1cn2cc(NC(=O)c3ccc(N4CCNCC4)c4cc(C)nn34)cc(F)c2n1 [Compound 940] |  |  | < 100 | 100 to 1000 |  | 
 | < 100 |  | < 100 | 100 to 1000 | 1000 to 10000 | < 100 | 100 to 1000 |  |  |  |  |  |  | Cc1cn2cc(NC(=O)c3ccc(N4CCNCC4)c4csnc34)cc(F)c2n1 [Compound 941] |  |  | < 100 | 100 to 1000 |  | 
 | < 100 |  | < 100 | < 100 | 100 to 1000 | < 100 | < 100 |  |  |  |  |  |  | Cc1cn2cc(NC(=O)c3ccc(N4CCNCC4)c4nc(C)nn34)cc(F)c2n1 [Compound 946] |  |  | < 100 | 100 to 1000 |  | 
